Non-standard residues stand in square brackets, D forms with d. Residues, ends and D or L forms follow the SMILES beside them. Dip = N[C@H](C(=O)O)C(c1ccccc1)c1ccccc1
Assays:
Type in all cases: cell-based, human
MCF-7/mdr = system: MCF-7/mdr
Procedure: (§1) Tumor cells were grown as adherent monolayers or as suspensions at 37° C. in a humidified atmosphere (5% CO2, 95% air). The culture medium was RPMI 1640 containing 2 mM L-glutamine (Lonza, Belgium) and supplemented with 10% fetal bovine serum (FBS, Lonza). For experimental use, the adherent cells were detached from the culture flask by a 5-minute treatment with trypsin-versene (Lonza), diluted in Hanks' medium without calcium or magnesium (Lonza) and neutralized by addition of complete culture medium. Cells were counted in a hemocytometer and their viability was assessed by 0.25% trypan blue exclusion.
(§2) Tumor cells were plated in 96-well flat-bottom microtitration plates (Nunc, Dutscher, Brumath, France) and incubated at 37° C. for 24 hours before treatment in 190 μl of drug-free culture medium supplemented or not with 10% FBS for adherent or suspension growing cell lines, respectively.
(§3) The adherent cell lines were washed once with 200 μl FBS-free culture medium before treatment. Tumor cells were incubated for 4 hours with 10 concentrations of compounds in ¼ dilution step with a top dose of 400 μM (range 4×10^−4 to 4×10^−10 M), with 1% (final concentration) Triton X-100 as positive control and FBS-free culture medium as negative control. The cells (190 μl) were incubated in a 200 μl final volume of FBS-free culture medium containing test substances at 37° C. under 5% CO2.
(§4) Three independent experiments were performed, each concentration being tested in quadruplicate. Control cells were treated with vehicle alone. At the end of treatments, the cytotoxic activity was evaluated by a MTS assay (see § 3.3).
(§5) Like MTT, MTS is bioreduced by cells into a formazan product that is directly soluble in culture medium without processing, unlike MTT.
(§6) At the end of the cells treatment, 40 μl of a 0.22 μm filtered freshly combined solution of MTS (20 ml at 2 mg/ml, Ref G1111, Batch 235897, Exp 03/2009, Promega, Charbonnières, France) and PMS (1 ml at 0.92 mg/ml, Ref P9625, Batch 065K0961, Sigma) in Dulbecco's Phosphate Buffered Saline (DPBS, Ref 17-513Q, Batch 6MB0152, Cambrex), were added in each well. Culture plates were incubated for 2 h at 37° C. Absorbency (OD) were measured at 490 nm in each well using VICTOR^3TM 1420 multilabeled counter (Wallac, PerkinElmer, Courtaboeuf, France).
(§7) [formula] • The OD values are the mean of 4 experimental measurements. • IC50: drug concentration to obtain a 50% inhibition of cell proliferation.
(§8) The dose-response curves were plotted using XLFit 3 (IDBS, United Kingdom). The IC50 determination values were calculated using the XLFit 3 software from semi-log curves. Individual IC50 determination values as well as mean and SD values were generated.
(§9) Resistance index was calculated using the following formula: […]
(§10) Resistance index was calculated for each compound for each couple of sensitive and resistant cell lines. Individual resistance index was calculated when IC50 values of both sensitive and corresponding resistant cell lines were determined within same experiment. In addition, resistance index was also calculated ratio of mean IC50 values obtained during three independent experiments.

IGROV-1/CDDP = system: IGROV-1/CDDP
Procedure: as §1, §2, §3, §4, §5, §6, §7, §8, §9, §10

HL-60/ADR = assay: In vitro cytotoxic activity, MTS assay; resistance index; conditions: HL-60/ADR vs sensitive HL-60 (doxorubicin resistance)
Procedure: as §1, §2, §3, §4, §5, §6, §7, §8, §9, §10

Compound: NCCCC[C@H](NC(=O)[C@@H](NC(=O)[C@H](Cc1c[nH]c2ccccc12)NC(=O)[C@H](CCCCN)NC(=O)[C@H](CCCCN)NC(=O)[C@H](Cc1c[nH]c2ccccc12)NC(=O)[C@H](Cc1c[nH]c2ccccc12)NC(=O)[C@H](CCCCN)NC(=O)[C@@H](N)CCCCN)C(c1ccccc1)c1ccccc1)C(N)=O [LTX-315, K-K-W-W-K-K-W-Dip-K-NH2] (H-KKWWKKW[Dip]K-NH2)
- Resistance index (RI) (MCF-7/mdr; MCF-7/mdr vs sensitive MCF-7 (doxorubicin resistance)): 1.12
- IC50 (MCF-7/mdr; MCF-7/mdr, resistant): 1.96 µM
- Resistance index (RI) (IGROV-1/CDDP; IGROV-1/CDDP vs IGROV-1 (cisplatin resistance)): 0.50
- IC50 (IGROV-1/CDDP; IGROV-1/CDDP, resistant): 3.19 µM
- Resistance index (RI) (HL-60/ADR): 1.45

From patent publication US12239686B2, “Immune checkpoint inhibitor combinations” (LYTIX BIOPHARMA AS, priority 2014, dated 2025)
